Source: ChEMBL document CHEMBL4376830, “Diterpenoids and Bisnorditerpenoids from Blumea aromatica” (2019)
Calls of active or inactive are those of the source. No cut-off for these calls is given here.

Species on record: Mus musculus
Experiment: Anti-immunosuppressive activity in LPS-activated mouse MDSC assessed as reduction in PD-L1 expression at 20 to 40 uM incubated for 24 hrs by flow cytometry
Assay type: functional

Row | SMILES | inhibition
1 | O=C(/C=C/c1ccc(O)c(O)c1)O[C@@H]1C[C@@](O)(C(=O)O)C[C@@H](O)[C@H]1O | inactive
2 | O=C(O)/C=C/C(=O)O | inactive
3 | COc1ccc(-c2oc3cc(O)c(OC)c(O)c3c(=O)c2OC)cc1 [SANTIN] | inactive
4 | CC(=O)/C=C/[C@H]1[C@](C)(O)[C@@H](O)[C@H](OC(=O)CC(C)C)[C@H]2C(C)(C)CCC[C@@]21C | inactive
5 | C=C/C(C)=C/C[C@H]1[C@](C)(O)[C@@H](O)[C@H](O)[C@H]2C(C)(C)CCC[C@@]21C | inactive
6 | CC1(C)C[C@H](O)C[C@@](C)(O)/C1=C\C(=O)O | inactive
7 | C/C=C(/C)C(=O)O[C@H]1[C@H](O)[C@@](C)(O)[C@H](/C=C/C(C)=O)[C@@]2(C)CCCC(C)(C)[C@H]12 | inactive
8 | CC(=O)/C=C/[C@H]1[C@](C)(O)[C@@H](O)[C@H](O)[C@H]2C(C)(C)CCC[C@@]21C | inactive
9 | C=C/C(C)=C/C[C@H]1[C@](C)(O)[C@@H](O)[C@H](OC(=O)CC(C)C)[C@H]2C(C)(C)CCC[C@@]21C | inactive
10 | O=Cc1c[nH]c2ccccc12 | inactive
11 | C=CC(=C)[C@@H](O)C[C@H]1[C@](C)(O)[C@@H](O)[C@H](O)[C@H]2C(C)(C)CCC[C@@]21C | inactive
12 | CC(=O)/C=C/[C@H]1[C@](C)(O)[C@@H](O)[C@H](OC(=O)C=C(C)C)[C@H]2C(C)(C)CCC[C@@]21C | inactive
13 | O=C(/C=C/c1ccc(O)c(O)c1)O[C@@H]1C[C@](O)(C(=O)O)C[C@@H](OC(=O)/C=C/c2ccc(O)c(O)c2)[C@@H]1O | inactive
14 | C=CC(=C)[C@H](O)C[C@H]1[C@](C)(O)[C@@H](O)[C@H](O)[C@H]2C(C)(C)CCC[C@@]21C | inactive
15 | O=C(/C=C/c1ccc(O)c(O)c1)O[C@@H]1C[C@](OC(=O)/C=C/c2ccc(O)c(O)c2)(C(=O)O)C[C@@H](O)[C@@H]1O | inactive
16 | CCCCOC(=O)[C@@]1(O)C[C@@H](O)[C@@H](OC(=O)/C=C/c2ccc(O)c(O)c2)[C@H](OC(=O)/C=C/c2ccc(O)c(O)c2)C1 | inactive
17 | O=c1c(O[C@@H]2O[C@H](CO)[C@@H](O)[C@H](O)[C@H]2O)c(-c2ccc(O)cc2)oc2cc(O)cc(O)c12 | inactive
18 | O=C(/C=C/c1ccc(O)c(O)c1)O[C@H]1[C@H](O)C[C@](O)(C(=O)O)C[C@H]1OC(=O)/C=C/c1ccc(O)c(O)c1 | inactive
19 | COC(=O)[C@@]1(O)C[C@@H](O)[C@@H](OC(=O)/C=C/c2ccc(O)c(O)c2)[C@H](OC(=O)/C=C/c2ccc(O)c(O)c2)C1 | inactive
20 | CC[C@H](CC[C@@H](C)[C@H]1CC[C@H]2[C@@H]3CC=C4C[C@@H](O)CC[C@]4(C)[C@H]3CC[C@]12C)C(C)C | inactive
21 | CCC(C)/C(=C/C(=O)O)C(=O)OC (stereo unspecified) | inactive
22 | O=C(/C=C/c1ccc(O)c(O)c1)O[C@@H]1[C@H](O)C[C@](O)(C(=O)O)C[C@H]1OC(=O)/C=C/c1ccc(O)c(O)c1 | inactive
23 | CCC(C)/C(=C/C(=O)O)C(=O)O (stereo unspecified) | inactive

The compounds below were run on RAW264.7 (assay: Anti-inflammatory activity in LPS-stimulated mouse RAW264.7 cells assessed as reduction in TNF-alpha production at 40 uM by ELISA relative to control).
Assay type: functional

Row | SMILES | inhibition at 40 µM [%]
24 | COc1ccc(-c2oc3cc(O)c(OC)c(O)c3c(=O)c2OC)cc1 [SANTIN] | 24
25 | CC1(C)C[C@H](O)C[C@@](C)(O)/C1=C\C(=O)O | 27.5
26 | O=C(/C=C/c1ccc(O)c(O)c1)O[C@@H]1[C@H](O)C[C@](O)(C(=O)O)C[C@H]1OC(=O)/C=C/c1ccc(O)c(O)c1 | 15.5
